Holding throughout (experiment): AK assay 384-well format, Prestwick library screening
One test concerns E. faecium. In kind it is cell-based, Enterococcus faecium. The conditions noted are these: 50 μM final drug concentration; for fold induction at 50 µM: Enterococcus faecium, 3 h.
For a further test, the system named is E. cloacae. The class given is cell-based, Enterobacter cloacae. The conditions noted are these: 50 μM final drug concentration; for fold induction at 50 µM: Enterobacter cloacae, 3 h.
The subject of the next test is K. pneumoniae. In kind it is cell-based, Klebsiella pneumoniae. The conditions noted are these: 50 μM final drug concentration; for fold induction at 50 µM: Klebsiella pneumoniae, 3 h.
For test [1], the system named is S. aureus strain USA300-0114. In kind it is cell-based, Staphylococcus aureus. The conditions noted are these: 50 μM final drug concentration; for fold induction at 50 µM: Staphylococcus aureus, USA300, 3 h.
A further test has as its system P. aeruginosa. The class given is cell-based, Pseudomonas aeruginosa. The conditions noted are these: 50 μM final drug concentration; for fold induction at 50 µM: Pseudomonas aeruginosa, 3 h.
The next test concerns E. coli. In kind it is cell-based, Escherichia coli. The conditions noted are these: 50 μM final drug concentration; for fold induction at 50 µM: Escherichia coli, 3 h.
Test [2] relates to A. baumannii strain 98-37-09. The class given is cell-based, Acinetobacter baumannii. The conditions noted are these: 50 μM final drug concentration; for fold induction at 50 µM: Acinetobacter baumannii, 983709, 3 h.
The mark [3] stands for this setting: cutoff for positive-scoring molecules 3-fold increase, read-out: AK-based Prestwick Library Screening Results, E. faecium (fold increase in extracellular AK activity).
The mark [4] stands for this setting: cutoff for positive-scoring molecules 3-fold increase, read-out: AK-based Prestwick Library Screening Results, E. cloacae (fold increase in extracellular AK activity).
[5] abbreviates: cutoff for positive-scoring molecules 3-fold increase, read-out: AK-based Prestwick Library Screening Results, K. pneumoniae (fold increase in extracellular AK activity).
[6] abbreviates: cutoff for positive-scoring molecules 3-fold increase, read-out: AK-based Prestwick Library Screening Results, S. aureus (fold increase in extracellular AK activity).
Setting [7] is: cutoff for positive-scoring molecules 3-fold increase, read-out: AK-based Prestwick Library Screening Results, P. aeruginosa (fold increase in extracellular AK activity).
Where [8] appears, read: cutoff for positive-scoring molecules 3-fold increase, read-out: AK-based Prestwick Library Screening Results, E. coli (fold increase in extracellular AK activity).
[9] abbreviates: cutoff for positive-scoring molecules 3-fold increase, read-out: AK-based Prestwick Library Screening Results, A. baumannii (fold increase in extracellular AK activity).
[10] abbreviates: planktonic, cutoff for positive 3-fold increase.

Structures can show the parent of a compound that is named as a salt. Where two headings read alike, the source gives them in different places.

In the case of `CC(C)(C)C(=O)OCOC(=O)[C@@H]1N2C(=O)[C@@H](/N=C/N3CCCCCC3)[C@H]2SC1(C)C` [Pivmecillinam hydrochloride], the fold induction at 50 µM with E. faecium (setting [3]) is 0.9; in the test with E. cloacae (setting [4]), 0.8; in the test on K. pneumoniae (setting [5]) it was 0.5; in test [1] (setting [6]), 0.6; in the test on P. aeruginosa (setting [7]) it was 0.6; in the test with E. coli (setting [8]), 7.7. Further, the fold induction at 50 µM in test [2] (setting [9]) amounted to 1.1.
For `CNC1(C)C2CCC(C2)C1(C)C` (stereo not drawn) [Mecamylamine hydrochloride], the fold induction at 50 µM in the test with E. faecium (planktonic E. faecium, positive cutoff 3-fold increase, read-out: AK-based Prestwick library screening result, E. faecium (fold increase in extracellular AK activity)) turned out to be 1.1; with E. cloacae (planktonic E. cloacae, positive cutoff 3-fold increase, read-out: AK-based Prestwick library screening result, E. cloacae (fold increase in extracellular AK activity)), 1.6; in the test on K. pneumoniae (planktonic K. pneumoniae, positive cutoff 3-fold increase, read-out: AK-based Prestwick library screening result, K. pneumoniae (fold increase in extracellular AK activity)) it was 1; in test [1] (planktonic S. aureus, positive cutoff 3-fold increase, read-out: AK-based Prestwick library screening result, S. aureus (fold increase in extracellular AK activity)), 1.4; with P. aeruginosa (planktonic P. aeruginosa, positive cutoff 3-fold increase, read-out: AK-based Prestwick library screening result, P. aeruginosa (fold increase in extracellular AK activity)), 1.1; with E. coli (planktonic E. coli, positive cutoff 3-fold increase, read-out: AK-based Prestwick library screening result, E. coli (fold increase in extracellular AK activity)), 1.4. For the same compound, the fold induction at 50 µM in test [2] (planktonic A. baumannii, positive cutoff 3-fold increase, read-out: AK-based Prestwick library screening result, A. baumannii (fold increase in extracellular AK activity)) came out at 1.2.
With `O=C(/C=C/C=C/c1ccc2c(c1)OCO2)N1CCCCC1` [Piperine], the fold induction at 50 µM in the test on E. faecium (planktonic, cutoff for positive 3-fold increase, read-out: AK-based Prestwick Library Screening Results, E. faecium (fold increase in extracellular AK activity)) came to 0.3; in the test on E. cloacae (planktonic, cutoff for positive 3-fold increase, read-out: AK-based Prestwick Library Screening Results, E. cloacae (fold increase in extracellular AK activity)), 1.6; in the test on K. pneumoniae (planktonic, cutoff for positive 3-fold increase, read-out: AK-based Prestwick Library Screening Results, K. pneumoniae (fold increase in extracellular AK activity)) it was 0.3; in test [1] (planktonic, cutoff for positive 3-fold increase, read-out: AK-based Prestwick Library Screening Results, S. aureus (fold increase in extracellular AK activity)) it was 0.2; in the test with P. aeruginosa (planktonic, cutoff for positive 3-fold increase, read-out: AK-based Prestwick Library Screening Results, P. aeruginosa (fold increase in extracellular AK activity)), 0.4; in the test on E. coli (planktonic, cutoff for positive 3-fold increase, read-out: AK-based Prestwick Library Screening Results, E. coli (fold increase in extracellular AK activity)) it was 0.4. The fold induction at 50 µM in test [2] (planktonic, cutoff for positive 3-fold increase, read-out: AK-based Prestwick Library Screening Results, A. baumannii (fold increase in extracellular AK activity)) is 0.4.
Turning to `CN(C)CCCO[C@@H]1[C@H]2OC(C)(C)O[C@H]2O[C@@H]1[C@H](O)CO` [Amiprilose hydrochloride], the fold induction at 50 µM with E. faecium (setting [3]) came to 1.1; in the test on E. cloacae (setting [4]) it was 1.5; in the test with K. pneumoniae (setting [5]) it was 0.9; in test [1] (setting [6]) it was 1.3; in the test with P. aeruginosa (setting [7]) it was 1.1; in the test on E. coli (setting [8]) it was 1.3. Also, in test [2] (setting [9]), the fold induction at 50 µM amounted to 1.2.
Regarding `CCCCNc1ccc(C(=O)OCCOCCOCCOCCOCCOCCOCCOCCOCCOC)cc1` [Benzonatate], the fold induction at 50 µM in the test on E. faecium (384-well format, cutoff for positive-scoring molecules 3-fold increase, read-out: AK-based Prestwick Library Screening Results, E. faecium (increase in extracellular AK activity)) is 0.8; in the test with E. cloacae (384-well format, cutoff for positive-scoring molecules 3-fold increase, read-out: AK-based Prestwick Library Screening Results, E. cloacae (increase in extracellular AK activity)), 0.7; with K. pneumoniae (384-well format, cutoff for positive-scoring molecules 3-fold increase, read-out: AK-based Prestwick Library Screening Results, K. pneumoniae (increase in extracellular AK activity)), 0.6; in test [1] (384-well format, cutoff for positive-scoring molecules 3-fold increase, read-out: AK-based Prestwick Library Screening Results, S. aureus (increase in extracellular AK activity)), 0.7; with P. aeruginosa (384-well format, cutoff for positive-scoring molecules 3-fold increase, read-out: AK-based Prestwick Library Screening Results, P. aeruginosa (increase in extracellular AK activity)), 0.6; in the test on E. coli (384-well format, cutoff for positive-scoring molecules 3-fold increase, read-out: AK-based Prestwick Library Screening Results, E. coli (increase in extracellular AK activity)), 0.7. Moreover, the fold induction at 50 µM in test [2] (384-well format, cutoff for positive-scoring molecules 3-fold increase, read-out: AK-based Prestwick Library Screening Results, A. baumannii (increase in extracellular AK activity)) was determined as 0.7.
As to `CC(=O)O[C@H]1C[C@H](O[C@H]2[C@@H](O)C[C@H](O[C@H]3[C@@H](O)C[C@H](O[C@H]4CC[C@@]5(C)[C@H](CC[C@@H]6[C@@H]5C[C@@H](O)[C@]5(C)[C@@H](C7=CC(=O)OC7)CC[C@]65O)C4)O[C@@H]3C)O[C@@H]2C)O[C@H](C)[C@H]1O[C@@H]1O[C@H](CO)[C@@H](O)[C@H](O)[C@H]1O` [Lanatoside C], the “AK-based Prestwick Library Screening Results, E. faecium (fold increase in extracellular AK activity)” value with E. faecium (planktonic, […]) was found to be 0.9. For the same compound, in the test with E. cloacae (planktonic, […]), the “AK-based Prestwick Library Screening Results, E. cloacae (fold increase in extracellular AK activity)” value worked out at 1.0. The “AK-based Prestwick Library Screening Results, K. pneumoniae (fold increase in extracellular AK activity)” value in the test on K. pneumoniae (planktonic, […]) is given as 0.6. The “AK-based Prestwick Library Screening Results, S. aureus (fold increase in extracellular AK activity)” value in test [1] (planktonic, […]) is on record as 0.7. In the test with P. aeruginosa (planktonic, […]), the “AK-based Prestwick Library Screening Results, P. aeruginosa (fold increase in extracellular AK activity)” value worked out at 0.6. For the same compound, the “AK-based Prestwick Library Screening Results, E. coli (fold increase in extracellular AK activity)” value in the test on E. coli (planktonic, […]) is reported as 0.6. Moreover, in test [2] (planktonic, […]), the “AK-based Prestwick Library Screening Results, A. baumannii (fold increase in extracellular AK activity)” value stood at 0.8.
On to Mephentermine hemisulfate, for which the “AK-based Prestwick Library Screening Results, E. faecium (fold increase in extracellular AK activity)” value in the test on E. faecium (planktonic, […]) is given as 0.8. Also, the “AK-based Prestwick Library Screening Results, E. cloacae (fold increase in extracellular AK activity)” value in the test on E. cloacae (planktonic, […]) was found to be 0.4. In addition, the “AK-based Prestwick Library Screening Results, K. pneumoniae (fold increase in extracellular AK activity)” value in the test with K. pneumoniae (planktonic, […]) is 0.5. Also, the “AK-based Prestwick Library Screening Results, S. aureus (fold increase in extracellular AK activity)” value in test [1] (planktonic, […]) was found to be 0.4. In the test with P. aeruginosa (planktonic, […]), the “AK-based Prestwick Library Screening Results, P. aeruginosa (fold increase in extracellular AK activity)” value amounted to 0.4. Further, the “AK-based Prestwick Library Screening Results, E. coli (fold increase in extracellular AK activity)” value in the test with E. coli (planktonic, […]) is 0.5. In addition, in test [2] (planktonic, […]), the “AK-based Prestwick Library Screening Results, A. baumannii (fold increase in extracellular AK activity)” value was 0.4.
In the case of `O=c1c2ccccc2[se]n1-c1ccccc1` [Ebselen], the fold induction at 50 µM with E. faecium (planktonic, cutoff for positive-scoring molecules 3-fold increase, read-out: AK-based Prestwick Library Screening Results, E. faecium (fold increase in extracellular AK activity)) turned out to be 0.9; in the test on E. cloacae (planktonic, cutoff for positive-scoring molecules 3-fold increase, read-out: AK-based Prestwick Library Screening Results, E. cloacae (fold increase in extracellular AK activity)) it was 0.7; in the test on K. pneumoniae (planktonic, cutoff for positive-scoring molecules 3-fold increase, read-out: AK-based Prestwick Library Screening Results, K. pneumoniae (fold increase in extracellular AK activity)), 0.6; in test [1] (planktonic, cutoff for positive-scoring molecules 3-fold increase, read-out: AK-based Prestwick Library Screening Results, S. aureus (fold increase in extracellular AK activity)), 0.5; with P. aeruginosa (planktonic, cutoff for positive-scoring molecules 3-fold increase, read-out: AK-based Prestwick Library Screening Results, P. aeruginosa (fold increase in extracellular AK activity)), 0.6; in the test on E. coli (planktonic, cutoff for positive-scoring molecules 3-fold increase, read-out: AK-based Prestwick Library Screening Results, E. coli (fold increase in extracellular AK activity)) it was 0.6. Moreover, in test [2] (planktonic, cutoff for positive-scoring molecules 3-fold increase, read-out: AK-based Prestwick Library Screening Results, A. baumannii (fold increase in extracellular AK activity)), the fold induction at 50 µM was found to be 0.7.
Regarding `CC(=O)NC1[C@@H](O)OC(CO)[C@@H](O)[C@H]1O[C@H](C)C(=O)O` (stereo in doubt) [Muramic acid, N-acetyl], the “AK-based Prestwick Library Screening Results, E. faecium (fold increase in extracellular AK activity)” value with E. faecium (setting [10]) is recorded as 1.0. The “AK-based Prestwick Library Screening Results, E. cloacae (fold increase in extracellular AK activity)” value in the test with E. cloacae (setting [10]) worked out at 1.4. Further, the “AK-based Prestwick Library Screening Results, K. pneumoniae (fold increase in extracellular AK activity)” value in the test on K. pneumoniae (setting [10]) turned out to be 1.0. The “AK-based Prestwick Library Screening Results, S. aureus (fold increase in extracellular AK activity)” value in test [1] (setting [10]) was 1.0. Moreover, in the test with P. aeruginosa (setting [10]), the “AK-based Prestwick Library Screening Results, P. aeruginosa (fold increase in extracellular AK activity)” value was determined as 1.1. Moreover, in the test on E. coli (setting [10]), the “AK-based Prestwick Library Screening Results, E. coli (fold increase in extracellular AK activity)” value was 1.1. Also, in test [2] (setting [10]), the “AK-based Prestwick Library Screening Results, A. baumannii (fold increase in extracellular AK activity)” value came out at 1.5.

The values above are taken from patent US10004701B2, “Methods and compositions for treating infection” (UNIVERSITY OF ROCHESTER, priority 2012, dated 2018).
